Consider 16 compounds from ChEMBL document CHEMBL2203260, “Riccardin C derivatives as anti-MRSA agents: structure-activity relationship of a series of hydroxylated bis(bibenzyl)s” (2012).

The subject of test [1] is Staphylococcus aureus. The experiment in a line: Antibacterial activity against methicillin-resistant Staphylococcus aureus OM584 by two-fold liquid microdilution method. In kind it is functional.
The subject of test [2] is Staphylococcus aureus. The experiment in a line: Antibacterial activity against methicillin-resistant Staphylococcus aureus OM481 by two-fold liquid microdilution method. The test is classed as functional. (In general: Dilution methods test growth across graded concentrations, often in twofold steps.)

Values after ≈ are worked out from the molar mass of the structure shown.

For `CC(=O)NC[C@H]1CN(c2ccc(N3CCOCC3)c(F)c2)C(=O)O1` [LINEZOLID], the MIC with Staphylococcus aureus [1] and with Staphylococcus aureus [2] was 1 µg/mL (≈ 2.96 µM) in each case.
`Oc1ccc(CCc2cccc(O)c2)cc1` [LUNULARIN]: the minimum inhibitory concentration (MIC) against Staphylococcus aureus [1] and with Staphylococcus aureus [2] was greater than 100 µg/mL throughout.
For `COc1cc2ccc1-c1ccccc1CCc1ccc(cc1)Oc1cccc(c1)CC2`, the minimal inhibitory concentration (MIC) in the test with Staphylococcus aureus [1] and against Staphylococcus aureus [2] was greater than 100 µg/mL throughout.
For the compound `Oc1ccc2cc1Oc1ccc(cc1)CCc1ccccc1-c1ccc(cc1O)CC2`, the MIC in the test with Staphylococcus aureus [1] and against Staphylococcus aureus [2] was 3.2 µg/mL (≈ 7.83 µM) each time.
On to `Oc1ccc2c(c1)CCc1ccc(cc1)Oc1cccc(c1)CCc1ccc-2cc1`, for which the minimum inhibitory concentration (MIC) in the test on Staphylococcus aureus [1] was greater than 100 µg/mL; in the test on Staphylococcus aureus [2], 1.6 µg/mL (≈ 4.08 µM).
The matching figures for `Oc1ccc2c(c1)CCc1ccc(cc1)Oc1cc(ccc1O)CCc1ccc-2c(O)c1` [RICCARDI C]: 3.2 µg/mL (≈ 7.54 µM) and 3.2 µg/mL (≈ 7.54 µM).
For `Oc1ccc2cc1Oc1ccc(cc1)CCc1ccccc1-c1ccc(cc1)CC2`, in that order: greater than 100 µg/mL and greater than 100 µg/mL.
The matching figures for `Oc1ccccc1Oc1ccccc1`: 6.25 µg/mL (≈ 33.6 µM) and 6.25 µg/mL (≈ 33.6 µM).
Turning to `COc1ccc2c(c1)CCc1ccc(cc1)Oc1cccc(c1)CCc1ccc-2cc1`, the MIC against Staphylococcus aureus [1] and against Staphylococcus aureus [2] was greater than 100 µg/mL throughout.
For `Oc1ccc(-c2ccccc2O)cc1`, the MIC with Staphylococcus aureus [1] and against Staphylococcus aureus [2] was greater than 100 µg/mL in each case.
`Oc1ccc2c(c1)CCc1ccc(cc1)Oc1cccc(c1)CCc1ccc-2c(O)c1`: the minimal inhibitory concentration (MIC) against Staphylococcus aureus [1] and in the test on Staphylococcus aureus [2] was 3.2 µg/mL (≈ 7.83 µM) throughout.
For `Oc1ccc2c(c1)CCc1ccc(cc1O)Oc1cc(ccc1O)CCc1ccc-2c(O)c1`, the minimum inhibitory concentration (MIC) in the test on Staphylococcus aureus [1] and against Staphylococcus aureus [2] was 8 µg/mL (≈ 18.2 µM) in each case.
Take `COc1ccc2cc1Oc1ccc(cc1)CCc1ccccc1-c1ccc(cc1)CC2`: the MIC in the test with Staphylococcus aureus [1] and against Staphylococcus aureus [2] was greater than 100 µg/mL throughout.
For `Oc1ccc2c(c1)CCc1ccc(cc1)Oc1cc(ccc1O)CCc1ccc-2cc1`, the MIC with Staphylococcus aureus [1] and in the test on Staphylococcus aureus [2] was 3.2 µg/mL (≈ 7.83 µM) in each case.
Consider `Oc1cc2ccc1-c1ccccc1CCc1ccc(cc1)Oc1cccc(c1)CC2`, for which the MIC in the test on Staphylococcus aureus [1] is greater than 100 µg/mL; against Staphylococcus aureus [2], 3.2 µg/mL (≈ 8.15 µM).
For the compound `Oc1ccc2c(c1)CCc1ccc(c(O)c1)Oc1cc(ccc1O)CCc1ccc-2c(O)c1`, the MIC in the test on Staphylococcus aureus [1] and against Staphylococcus aureus [2] was 16 µg/mL (≈ 36.3 µM) throughout.

Broadly, the MIC is the least concentration at which growth counts as inhibited. Low readings indicate a more susceptible organism, high ones a less susceptible organism.
